Measurements as given in article PMC12257356, “Structure-guided engineering of a polyphosphate kinase 2 class III from an Erysipelotrichaceae bacterium to produce base-modified purine nucleotides” (RSC Chemical Biology, 2025).

Assays:
[1] = target: T1, EbPPK2 (polyphosphate kinase 2 class III from an Erysipelotrichaceae bacterium) (Erysipelotrichaceae bacterium, UniProt P0DY74); experiment: HPLC conversion to NDP/NTP; assay type: biochemical; settings: 1 mM NMP, 1 μM enzyme, 6.1 g/L sodium polyphosphate, 20 mM MgCl2, 20 mM Tris pH 8, 30 °C, 10 min
T1 construct: gene DHS57_05705; purified; 146 kDa homotetramer
T1 sequence (P0DY74 1-298): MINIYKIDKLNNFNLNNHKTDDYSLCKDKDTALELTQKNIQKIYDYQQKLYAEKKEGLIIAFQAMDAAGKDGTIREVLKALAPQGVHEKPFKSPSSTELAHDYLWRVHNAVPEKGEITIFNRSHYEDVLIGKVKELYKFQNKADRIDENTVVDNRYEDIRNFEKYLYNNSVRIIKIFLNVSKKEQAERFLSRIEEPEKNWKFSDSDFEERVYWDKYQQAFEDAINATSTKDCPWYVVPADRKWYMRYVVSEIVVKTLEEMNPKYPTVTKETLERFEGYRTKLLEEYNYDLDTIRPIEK

[2] = target: T1, EbPPK2 (polyphosphate kinase 2 class III from an Erysipelotrichaceae bacterium); experiment: X-ray crystal structure; settings: 1.7 Å; ternary complex with polyP and Mg2+; nucleotide-binding pocket of the active site

| Structure (SMILES) | HPLC conversion to NDP/NTP [1] | X-ray crystal structure [2] |
| --- | --- | --- |
| Nc1ncnc2c1ncn2[C@@H]1O[C@H](COP(=O)(O)O)[C@@H](O)[C@H]1O [1a, AMP] | Starting from AMP (1a), the reaction approached a distribution of AMP | – |
| Nc1nc2c(ncn2[C@@H]2O[C@H](COP(=O)(O)O)[C@@H](O)[C@H]2O)c(=O)[nH]1 [5a, GMP] | GMP and GMP-like analogues were phosphorylated more slowly by EbPPK | – |
| Nc1ncnc2c1ncn2[C@@H]1O[C@H](COP(=O)(O)OP(=O)(O)CP(=O)(O)O)[C@@H](O)[C@H]1O [adenosine-5′-[(β,γ)-methyleno]triphosphate] | – | EbPPK2 in complex with the non-hydrolysable ATP analogue adenosine-5′-[(β,γ)-methyleno]triphosphate (ACP) and polyP (PDB: 9IGQ) |
